US10479780B2, “Aminopyrazole derivatives” (Chugai Seiyaku Kabushiki Kaisha, priority 2015, dated 2019)

What was measured:
Type in all cases: biochemical
[1] = molecular target: T1, human Src enzyme (Homo sapiens, UniProt P12931); assay: Src enzyme inhibitory activity (time-resolved fluorometry, biotinylated peptide phosphorylation); conditions: biotinylated peptide phosphorylation, read-out: SRC_IC50
T1 construct: purchased Carna Biosciences, Inc. 08-173
Method in brief: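 Compounds were tested for blocking tyrosine phosphorylation of a biotinylated peptide substrate by recombinant human Src. Phosphorylated product was quantified by time-resolved fluorometry using europium cryptate and XL665 conjugates, and IC50 was calculated against the compound-free control.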

[2] = molecular target: T2, human Yes1 enzyme (Homo sapiens, UniProt P07947); assay: Yes1 enzyme inhibitory activity (time-resolved fluorometry, biotinylated peptide phosphorylation); conditions: biotinylated peptide phosphorylation, read-out: YES_IC50
T2 construct: made in house
T2 sequence (P07947 whole entry): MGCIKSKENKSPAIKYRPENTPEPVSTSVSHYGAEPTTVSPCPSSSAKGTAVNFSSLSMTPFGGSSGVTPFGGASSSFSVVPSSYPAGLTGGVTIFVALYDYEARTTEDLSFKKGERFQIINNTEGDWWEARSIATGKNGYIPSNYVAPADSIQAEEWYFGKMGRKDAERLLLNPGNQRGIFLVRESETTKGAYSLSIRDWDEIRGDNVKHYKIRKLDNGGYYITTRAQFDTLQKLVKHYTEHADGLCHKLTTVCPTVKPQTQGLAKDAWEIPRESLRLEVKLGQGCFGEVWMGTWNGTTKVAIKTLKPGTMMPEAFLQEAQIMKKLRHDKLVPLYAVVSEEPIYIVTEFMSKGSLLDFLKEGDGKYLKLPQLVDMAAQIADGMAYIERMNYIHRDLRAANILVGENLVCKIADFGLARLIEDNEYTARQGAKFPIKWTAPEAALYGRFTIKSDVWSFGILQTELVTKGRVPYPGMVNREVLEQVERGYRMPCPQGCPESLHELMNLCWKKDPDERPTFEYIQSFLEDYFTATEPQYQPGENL
Method in brief: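 Inhibition was expressed against a compound-free control to give IC50, using TR-FRET read-out (Eu-cryptate anti-pTyr antibody, streptavidin-XL665).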

[3] = molecular target: T3, human Lck enzyme (Homo sapiens, UniProt P06239); assay: Lck enzyme inhibitory activity (time-resolved fluorometry, biotinylated peptide phosphorylation); conditions: biotinylated peptide phosphorylation, read-out: LCK_IC50
T3 construct: purchased Carna Biosciences, Inc. 08-170
T3 sequence (P06239 whole entry): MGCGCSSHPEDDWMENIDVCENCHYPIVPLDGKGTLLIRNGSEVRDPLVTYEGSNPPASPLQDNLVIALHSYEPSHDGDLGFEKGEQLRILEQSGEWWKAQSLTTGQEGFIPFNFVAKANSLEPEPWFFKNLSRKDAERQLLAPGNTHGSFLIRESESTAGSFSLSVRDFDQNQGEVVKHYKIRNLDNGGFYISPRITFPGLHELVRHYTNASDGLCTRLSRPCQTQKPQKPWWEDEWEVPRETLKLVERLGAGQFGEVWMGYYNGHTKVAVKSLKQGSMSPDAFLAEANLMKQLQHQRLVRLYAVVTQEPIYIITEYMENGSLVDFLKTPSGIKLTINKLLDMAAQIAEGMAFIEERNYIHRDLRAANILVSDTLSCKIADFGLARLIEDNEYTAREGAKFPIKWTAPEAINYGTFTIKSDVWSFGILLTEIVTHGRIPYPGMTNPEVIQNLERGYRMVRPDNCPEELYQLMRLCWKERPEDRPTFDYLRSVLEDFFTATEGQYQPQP
Method in brief: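 Readout pairs a europium cryptate-labelled anti-phosphotyrosine antibody with XL665-streptavidin, measured by time-resolved fluorescence. IC50 derived from percent inhibition against untreated controls.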

T1 sequence (P12931 whole entry): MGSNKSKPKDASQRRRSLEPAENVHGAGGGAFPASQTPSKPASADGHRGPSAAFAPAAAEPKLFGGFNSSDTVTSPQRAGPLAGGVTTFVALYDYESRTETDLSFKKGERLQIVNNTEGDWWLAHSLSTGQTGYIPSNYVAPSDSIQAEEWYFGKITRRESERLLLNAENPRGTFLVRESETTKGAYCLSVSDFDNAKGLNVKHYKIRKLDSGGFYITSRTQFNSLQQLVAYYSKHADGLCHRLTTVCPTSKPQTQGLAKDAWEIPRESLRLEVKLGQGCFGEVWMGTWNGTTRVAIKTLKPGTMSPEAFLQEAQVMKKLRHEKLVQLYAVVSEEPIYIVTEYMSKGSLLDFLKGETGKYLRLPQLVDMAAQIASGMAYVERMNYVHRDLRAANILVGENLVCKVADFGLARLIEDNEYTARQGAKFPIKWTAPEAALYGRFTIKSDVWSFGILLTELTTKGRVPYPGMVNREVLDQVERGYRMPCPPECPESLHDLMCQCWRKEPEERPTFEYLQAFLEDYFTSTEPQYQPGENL

| IC50 [1] | IC50 [2] | IC50 [3] | Structure (SMILES) |
| --- | --- | --- | --- |
| 470 nM | 3.1 nM | 14 nM | Cc1cc(Oc2c(F)cccc2F)ncc1-n1ncc(C(=O)c2cc3cc(OCC(F)F)c(NS(=O)(=O)c4cncc(F)c4)cc3[nH]2)c1N [Example 5-1-576, N-[2-[5-amino-1-[6-(2,6-difluorophenoxy)-4-methylpyridin-3-yl]pyrazole-4-carbonyl]-5-(2,2-difluoroethoxy)-1H-indol-6-yl]-5-fluoropyridine-3-sulfonamide] |
| 1100 nM | 6.6 nM | 380 nM | Cc1cc2cc(C(=O)c3cnn(-c4cnc(Oc5ccccc5F)cc4C)c3N)[nH]c2cc1NS(=O)(=O)c1cnc(N(C)C)nc1 [Example 5-1-577, N-[2-[5-amino-1-[6-(2-fluorophenoxy)-4-methylpyridin-3-yl]pyrazole-4-carbonyl]-5-methyl-1H-indol-6-yl]-2-(dimethylamino) pyrimidine-5-sulfonamide] |
